Our source for the activation and IC50 values is patent US20250066389A1, “HETEROCYCLIC AMIDES AND METHODS OF USING THE SAME” (Rgenta Therapeutics, Inc., priority 2021, published 2025).

Structures can show the parent of a compound that is named as a salt.

One assay concerns PMS1. The assay can be described thus: Mini-Gene Reporter Assay—PMS1 (firefly luciferase mini-gene reporter transiently transfected into HEK293 cells). It is filed as cell-based. As to conditions: Homo sapiens; at 5 uM; mini-gene firefly luciferase reporter in HEK293 cells; read-out: PMS1 % Effect at 5 uM. In a few lines:
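HEK293 cells transiently transfected with a mini-gene construct (skipped exon with flanking introns/exons fused to firefly luciferase, pcDNA3.1) are incubated with compounds in duplicate. Exon inclusion raises luminescence; EC50 fitted by Levenberg-Marquardt; effect also scored at 5 μM.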
Consider `CCOc1cc2nn(C)cc2cc1C(=O)Nc1cnc(N(C)CC2CCNC2)nc1` (stereo not shown) [Compound 449], for which the activation at 5 µM is below 50%.
Still for that read-out and setting: the value for `CCOc1cc2nn(C)cc2cc1C(=O)Nc1cnc(NC2CNCC3(CCC3)C2)cn1` (stereo not shown) [Compound 313] was below 50%.
For the compound `CCOc1cn2nc(C)cc2cc1C(=O)Nc1cnc(N2CCCC2CNC)nc1` (stereo not shown) [Compound 574], the activation at 5 µM was below 50%.
`CCOc1cc2nn(C)cc2cc1C(=O)Nc1cnc(NCC2(C)CCNC2)nc1` (stereo not shown) [Compound 439]: the activation at 5 µM is below 50%.
The same measure, in the same setting: the value for `CCOc1cn2nc(C)cc2cc1C(=O)Nc1ccc(C2CCNCC2)nn1` [Compound 757, 6-ethoxy-2-methyl-N-(6-(piperidin-4-yl)pyridazin-3-yl)pyrazolo[1,5-a]pyridine-5-carboxamide hydrochloride] was above 75%; that for `CCOc1cc2nn(C)cc2cc1C(=O)Nc1cnc(N2C[C@@H](F)C[C@H]2CNC)nc1` [Compound 440] was below 50%.
Still for that read-out and setting: the figure for `CCOc1cn2nc(C)cc2cc1C(=O)Nc1cnc(N2CCC(CCN3CCNCC3)CC2)nc1` [Compound 607] is below 50%; for `CCOc1cc2nc(C)cn2cc1C(=O)Nc1cnc(N2CCC(NC)CC2)nc1` [Compound 648] it is below 50%; for `CCOc1cn2nc(C)cc2cc1C(=O)Nc1cnc(N2CC(NC)C3(CC3)C2)nc1` (stereo not shown) [Compound 612] it is below 50%.
On the same count and under the same terms, the value for `CCOc1cc2nn(C)cc2cc1C(=O)Nc1cnc(NCC2CCNCC2C)nc1` (stereo not shown) [Compound 434] was below 50%; that for `CCOc1cn2nc(C)cc2cc1C(=O)Nc1cnc(N(C)C[C@@H]2CCCCN2)cn1` [Compound 519] was above 75%; that for `CCOc1cc2nn(C)cc2cc1C(=O)Nc1cnc(N2CC(N)CC2C)cn1` (stereo not shown) [Compound 321] was above 75%.
As for `CCOc1cc2nn(C)cc2cc1C(=O)Nc1cnc(N2C[C@H](O)C[C@@H]2CN)nc1` [Compound 433], the activation at 5 µM is below 50%.
Still for that read-out and setting: the value for `CCOc1cn2nc(C)cc2cc1C(=O)Nc1cnc(NCC2C=CCN2)nc1` (stereo not shown) [Compound 562] was below 50%.
Consider `CCOc1cn2nc(C)cc2cc1C(=O)Nc1cnc(N2CCC3(CNCCO3)C2)nc1` (stereo not shown) [Compound 572], for which the activation at 5 µM is below 50%.
On the same count and under the same terms, the value for `CCOc1cn2nc(C)cc2cc1C(=O)Nc1cnc(N2CCC3(CC2)CNCCO3)cn1` [Compound 542] was below 50%; that for `CCOc1cc2nc(C)cn2cc1C(=O)Nc1cnc(N2CC(O)(CNC)C2)cn1` [Compound 662] was above 75%.
As to `COc1cc2nc(C)cn2cc1C(=O)Nc1ccc(N2CCC3(CCCN3)C2)cc1F` (stereo not shown) [Compound 146, N-(2-fluoro-4-(1,7-diazaspiro[4.4]nonan-7-yl)phenyl)-7-methoxy-2-methylimidazo[1,2-a]pyridine-6-carboxamide], the activation at 5 µM is below 50%.
On the same count and under the same terms, the figure for `CCOc1cn2nc(C)cc2cc1C(=O)Nc1cnc(N2CCN[C@@H](C)C2)nc1` [Compound 596] is 50 to 75%.
The same measure, in the same setting: the value for `CCOc1cc2nn(C)cc2cc1C(=O)Nc1cnc(N2CCC3(CCCN3)CC2)cn1` [Compound 343] was above 75%.
Same read-out and setting: the figure for `CCOc1cc2nn(C)cc2cc1C(=O)Nc1cnc(N2CCCC(NCCO)C2)cn1` (stereo not shown) [Compound 339] is above 75%; for `CCOc1cc2nn(C)cc2cc1C(=O)Nc1cnc(N[C@H]2C[C@H]3CC[C@@H](C2)N3)cn1` [Compound 367] it is above 75%; for `CCOc1cc2nn(C)cc2cc1C(=O)Nc1cnc(N2CCC3(CC2)CNCCO3)cn1` [Compound 350] it is 50 to 75%.
As to `CCOc1cc2nn(C)cc2cc1C(=O)Nc1cnc(N(C)C2CCNCC2)nc1` [Compound 478], the activation at 5 µM was 50 to 75%.
On the same count and under the same terms, the figure for `Cc1cn2cc(C(=O)Nc3ccc(N4CCNCC4)cc3F)nc(C)c2n1` [Compound 109, N-(2-fluoro-4-(piperazin-1-yl)phenyl)-2,8-dimethylimidazo[1,2-a] pyrazine-6-carboxamide hydrochloride] is above 75%.
In the case of `CCOc1cc2nc(C)cn2cc1C(=O)Nc1cnc(N2CCC3(CC2)CNCCO3)cn1` [Compound 683], the activation at 5 µM is below 50%.
The same measure, in the same setting: the value for `CCOc1cc2nc(C)cn2cc1C(=O)Nc1cnc(NCC2(F)CCNC2)cn1` (stereo not shown) [Compound 674] was 50 to 75%.
With `CCOc1cc2nc(C)cn2cc1C(=O)Nc1cnc(N2CCC3(CNCCO3)C2)cn1` (stereo not shown) [Compound 673], the activation at 5 µM was below 50%.
Still for that read-out and setting: the value for `CCOc1cc2nn(C)cc2cc1C(=O)Nc1cnc(N2CCC3(CC2)CNCCO3)nc1` [Compound 452] was below 50%; that for `CCCC[C@H]1CN(c2cnc(NC(=O)c3cc4cc(C)nn4cc3OCC)cn2)CCN1` [Compound 540] was above 75%.
The same measure, in the same setting: the value for `CCOc1cn2nc(C)cc2cc1C(=O)Nc1cnc(NC[C@@H]2CC(F)(F)CN2)cn1` [Compound 532] was below 50%.
Same read-out and setting: the figure for `CCOc1cc2nn(C)cc2cc1C(=O)Nc1cnc(N[C@@H]2CNC[C@@H](F)C2)cn1` [Compound 307] is 50 to 75%; for `CCOc1cc2nn(C)cc2cc1C(=O)Nc1cnc(NC[C@H]2CNCC(C)(C)O2)cn1` [Compound 312] it is below 50%.
For `CCOc1cn2nc(C)cc2cc1C(=O)Nc1cnc(N2CC(N)CC(O)C2)cn1` (stereo not shown) [Compound 535], the activation at 5 µM was above 75%.
The same measure, in the same setting: the value for `CCOc1cn2nc(C)cc2cc1C(=O)Nc1cnc(N2CCC(N)CC2)nc1` [Compound 597] was below 50%; that for `CCOc1cn2nc(C)cc2cc1C(=O)Nc1cnc(N2CCC(CCNC)CC2)cn1` [Compound 527] was below 50%.

The assay is the same for the next values; noted with them: Homo sapiens; mini-gene firefly luciferase reporter in HEK293 cells.
As for `COc1cc2nc(C)cn2cc1C(=O)Nc1ccc(N2CCNCC2)cc1F` [Compound 111, N-(2-fluoro-4-(piperazin-1-yl)phenyl)-7-methoxy-2-methylimidazo [1,2-a]pyridine-6-carboxamide hydrogen chloride], the IC50 (usually the concentration that inhibits the measured activity by half) was below 1000 nM.
On the same count and under the same terms, the value for `CCOc1cc2nn(C)cc2cc1C(=O)Nc1cnc(N2CCN[C@@H](C)C2)cn1` [Compound 710, (S)-6-ethoxy-2-methyl-N-(5-(3-methylpiperazin-1-yl)pyrazin-2-yl)-2H-indazole-5-carboxamide formate] was below 1000 nM; that for `COc1cc2nc(C)cn2cc1C(=O)Nc1ccc(N2CC3CCC(C2)N3)cc1F` [Compound 165, N-(4-(3,8-diazabicyclo[3.2.1]octan-3-yl)-2-fluorophenyl)-7-methoxy-2-methylimidazo[1,2-a]pyridine-6-carboxamide] was below 1000 nM.
The same measure, in the same setting: the figure for `CCOc1nc2nn(C)cc2cc1C(=O)Nc1ccc(N2CCNCC2)nn1` [Compound 715, 6-ethoxy-2-methyl-N-(6-(piperazin-1-yl)pyridazin-3-yl)-2H-pyrazolo[3,4-b]pyridine-5-carboxamide] is below 1000 nM; for `CCOc1cc2nc(C)cn2cc1C(=O)Nc1ccc(N2CC3CN(C)CC3C2)nn1` (stereo not shown) [Compound 745, 7-ethoxy-2-methyl-N-(6-(5-methylhexahydropyrrolo[3,4-c]pyrrol-2(1H)-yl)pyridazin-3-yl)imidazo[1,2-a]pyridine-6-carboxamide formate] it is 1000 to 10000 nM; for `CCOc1cc2nc(C)cn2cc1C(=O)Nc1ccc(N2C[C@@H](C)N[C@@H](C)C2)nn1` [Compound 282] it is below 1000 nM.
The same measure, in the same setting: the value for `COc1cc2nc(C)cn2cc1C(=O)Nc1ccc(N2CCNCCC2C)cc1F` (stereo not shown) [Compound 158, N-(2-fluoro-4-(7-methyl-1,4-diazepan-1-yl)phenyl)-7-methoxy-2-methylimidazo[1,2-a]pyridine-6-carboxamide] was below 1000 nM; that for `Cc1cn2cc(C(=O)Nc3ccc(N4CCN[C@@H](C)C4)nn3)c(OC3CCOC3)cc2n1` (stereo partly drawn) [Compound 206, 2-methyl-N-(6-((S)-3-methylpiperazin-1-yl)pyridazin-3-yl)-7-((tetrahydrofuran-3-yl)oxy)imidazo[1,2-a]pyridine-6-carboxamide hydrochloride] was below 1000 nM; that for `CCOc1cc2nc(C)cn2cc1C(=O)Nc1ccc(N2CCNC(CC(F)(F)F)C2)nn1` (stereo not shown) [Compound 231] was 1000 to 10000 nM.
`CCOc1cc2nc(C)cn2cc1C(=O)Nc1ccc(N2CCCNCC2)nn1` [Compound 294] displayed an IC50 below 1000 nM.
The same measure, in the same setting: the figure for `CCOc1cc2nc(C)cn2cc1C(=O)Nc1ccc(N2CCNCC2)nn1` [Compound 290] is below 1000 nM.
Still for that read-out and setting: the figure for `CCOc1cc2nc(C)cn2cc1C(=O)Nc1ccc(N2CCNC(C)C2C)nn1` (stereo not shown) [Compound 268] is 1000 to 10000 nM.
On the same count and under the same terms, the value for `CCOc1cc2nc(C)cn2cc1C(=O)Nc1ccc(N2CCN[C@@H](C(C)C)C2)nn1` [Compound 276] was below 1000 nM; that for `COc1cc2nc(C)cn2cc1C(=O)Nc1ccc(N2CCNCC2)cn1` [Compound 110, 7-methoxy-2-methyl-N-(5-(piperazin-1-yl)pyridin-2-yl)imidazo[1,2-a]pyridine-6-carboxamide HCl Salt] was below 1000 nM; that for `Cc1cn2cc(C(=O)Nc3ccc(N4CCN[C@@H](C)C4)nn3)c(OCC(F)(F)F)cc2n1` [Compound 216, (S)-2-methyl-N-(6-(3-methylpiperazin-1-yl)pyridazin-3-yl)-7-(2,2,2-trifluoroethoxy)imidazo[1,2-a]pyridine-6-carboxamide] was below 1000 nM.
The compound `CCNC1CCN(c2ccc(NC(=O)c3cn4cc(C)nc4cc3OCC)nn2)CC1` [Compound 269] yielded an IC50 of 1000 to 10000 nM.
On the same count and under the same terms, the value for `Cc1cn2cc(C(=O)Nc3ccc(N4CCNC(C)(C)C4)nn3)c(OC3CCC3)cc2n1` [Compound 219, 7-cyclobutoxy-N-(6-(3,3-dimethylpiperazin-1-yl)pyridazin-3-yl)-2-methylimidazo[1,2-a]pyridine-6-carboxamide] was below 1000 nM; that for `CCOc1cc2nn(C)cc2cc1C(=O)Nc1ccc(C2=CCNCC2)nn1` [Compound 708, 6-ethoxy-2-methyl-N-(6-(1,2,3,6-tetrahydropyridin-4-yl)pyridazin-3-yl)-2H-indazole-5-carboxamide formate] was below 1000 nM.
On the same count and under the same terms, the figure for `CCOc1cc2nc(C)cn2cc1C(=O)Nc1ccc(N2CCC3(CCNC3)C2)nn1` (stereo not shown) [Compound 286] is 1000 to 10000 nM.
